pIC50: −log10 of the molar value.
Tests used:
Type in all cases: cell-based
human M1 receptor = target: T1, human M1 receptor (Homo sapiens, UniProt P11229); test: In vitro functional assay of muscarinic acetylcholine receptor activity (aequorin calcium flux, antagonist mode vs EC80 acetylcholine), M1; details: CHO-K1 cells stably expressing human M1 receptor with Aequorin; decrease in EC80 acetylcholine response
T1 construct: host or cells: CHO-K1
T1 sequence (P11229 1-460): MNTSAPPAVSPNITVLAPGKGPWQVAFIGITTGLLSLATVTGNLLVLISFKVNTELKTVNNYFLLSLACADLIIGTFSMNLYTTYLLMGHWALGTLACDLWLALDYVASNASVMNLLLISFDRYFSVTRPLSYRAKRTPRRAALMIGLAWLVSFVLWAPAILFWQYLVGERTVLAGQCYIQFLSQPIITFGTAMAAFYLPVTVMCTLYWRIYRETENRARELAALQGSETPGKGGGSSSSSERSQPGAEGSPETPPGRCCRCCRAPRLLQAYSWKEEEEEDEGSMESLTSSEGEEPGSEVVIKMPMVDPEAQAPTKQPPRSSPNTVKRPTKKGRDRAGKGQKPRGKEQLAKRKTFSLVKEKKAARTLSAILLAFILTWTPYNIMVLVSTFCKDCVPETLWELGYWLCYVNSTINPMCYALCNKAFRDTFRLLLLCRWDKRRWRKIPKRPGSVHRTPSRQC
Procedure: (§1) CHO-K1 cells stably expressing human M1 receptor with Aequorin (Perkin Elmer) were grown in F12 media, 10% FBS with 0.4 mg/mL geneticin and […]. Cells were grown to confluence and frozen down to be assayed at a later date. On the day of the experiment cells were thawed in a 37° C. water bath, resuspended in DMEM/HAM's F12 with HEPES (Invitrogen)+0.1% protease-free BSA (assay buffer), and spun down to remove freezing media. After centrifugation, supernatant was removed and 12 mL of assay buffer was added. Coelenterazine h (Promega) was added to the cells at a final concentration of 5 uM and incubated for 4 hours at room temperature in the dark. Compound master plate-96 deep well (Corning) were formatted in a 8-point DRC in assay buffer with 0.2% DMSO at a starting concentration of 60 uM (2×). After 4 hours of incubation, cells were plated at a concentration of 5×10^5 cells/well in 96 well white-walled, tissue culture-treated, clear-bottom plates (VWR). Compounds were added to the daughter plate, and cells plus compound were incubated at room temperature for 30 minutes in the dark.
(§2) Calcium flux was measured using the FlexStation 3 (Molecular Devices). To measure the antagonist dose-response, the EC80 of Acetylcholine was injected to the daughter plate using the automated compound transfer function of the Flex Station, and the increase in luminescence was measured over time. Antagonist activity was analyzed as a concentration dependent decrease in the EC80 acetylcholine response. Dose response curves were generated using Prism (GraphPad Software). The IC50 of the compounds was calculated from the dose response curve.

M3 = M3 (Homo sapiens, UniProt P20309); test: In vitro functional assay of muscarinic acetylcholine receptor activity, M3; details: antagonist activity; M3 method not separately described
M3, sequence (P20309 whole entry): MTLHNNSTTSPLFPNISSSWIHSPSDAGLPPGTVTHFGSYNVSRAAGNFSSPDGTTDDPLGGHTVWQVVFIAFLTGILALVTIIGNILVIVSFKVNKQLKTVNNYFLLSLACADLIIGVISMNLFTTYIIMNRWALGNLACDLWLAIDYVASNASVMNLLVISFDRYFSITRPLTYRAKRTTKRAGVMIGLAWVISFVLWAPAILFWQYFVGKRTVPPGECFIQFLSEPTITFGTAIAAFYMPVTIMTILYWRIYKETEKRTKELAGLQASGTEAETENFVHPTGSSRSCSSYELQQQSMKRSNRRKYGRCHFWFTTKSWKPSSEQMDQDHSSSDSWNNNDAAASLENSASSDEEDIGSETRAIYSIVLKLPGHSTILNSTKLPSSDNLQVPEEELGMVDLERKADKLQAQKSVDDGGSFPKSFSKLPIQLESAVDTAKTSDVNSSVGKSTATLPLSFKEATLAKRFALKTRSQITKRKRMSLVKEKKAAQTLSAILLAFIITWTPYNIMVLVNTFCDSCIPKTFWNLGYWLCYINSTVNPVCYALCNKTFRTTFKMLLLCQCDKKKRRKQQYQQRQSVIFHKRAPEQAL
Procedure: [The procedure below names another target; the source lists this target under the same test.] as §1, §2

M2 = target: T2, M2 (Homo sapiens, UniProt P08172); test: In vitro functional assay of muscarinic acetylcholine receptor activity, M2; details: antagonist activity; M2 method not separately described
T2 sequence (P08172 1-466): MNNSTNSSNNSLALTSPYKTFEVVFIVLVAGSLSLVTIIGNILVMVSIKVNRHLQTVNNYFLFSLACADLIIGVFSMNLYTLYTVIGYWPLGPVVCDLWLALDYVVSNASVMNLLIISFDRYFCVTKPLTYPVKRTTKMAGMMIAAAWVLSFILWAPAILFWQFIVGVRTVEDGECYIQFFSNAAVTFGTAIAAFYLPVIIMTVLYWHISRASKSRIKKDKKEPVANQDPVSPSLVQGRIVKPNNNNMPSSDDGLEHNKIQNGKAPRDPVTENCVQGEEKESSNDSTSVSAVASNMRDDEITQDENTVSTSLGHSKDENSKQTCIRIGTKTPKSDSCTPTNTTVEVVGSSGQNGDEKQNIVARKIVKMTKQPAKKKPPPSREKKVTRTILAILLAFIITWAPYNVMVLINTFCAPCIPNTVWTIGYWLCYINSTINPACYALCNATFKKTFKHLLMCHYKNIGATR
Procedure: [The procedure below names another target; the source lists this target under the same test.] as §1, §2

O=C1C(CCCc2cccc3ncnn23)C[C@H]2CN(c3ccc(F)cn3)CCN12 (mixture of isomers) [Example 41, (7S,8aS)-7-(3-([1,2,4]triazolo[1,5-a]pyridin-5-yl)propyl)-2-(5-fluoropyridin-2-yl)hexahydropyrrolo[1,2-a]pyrazin-6(2H)-one]
pIC50 (human M1 receptor): > 7.00 | pIC50 (M3): 5.00 to 6.00 | pIC50 (M2): 5.00 to 6.00

N#Cc1cc(N2CCN3C(=O)[C@@H](CCCc4cccc5ncsc45)C[C@H]3C2)ccn1 [Example 11, 4-((7S,8aS)-7-(3-(benzo[d]thiazol-7-yl)propyl)-6-oxohexahydropyrrolo[1,2-a]pyrazin-2(1H)-yl)picolinonitrile]
pIC50 (human M1 receptor): > 7.00 | pIC50 (M3): 6.00 to 7.00 | pIC50 (M2): 6.00 to 7.00

Cn1ncc2cccc(CCC[C@H]3C[C@H]4CN(c5ccc(C#N)cn5)CCN4C3=O)c21 [Example 55, 6-((7S,8aS)-7-(3-(1-methyl-1H-indazol-7-yl)propyl)-6-oxohexahydropyrrolo[1,2-a]pyrazin-2(1H)-yl)nicotinonitrile]
pIC50 (human M1 receptor): 6.00 to 7.00 | pIC50 (M3): 5.00 to 6.00 | pIC50 (M2): 5.00 to 6.00

Cc1cc(N2CCN3C(=O)C(CCCc4cccc5ncnn45)C[C@H]3C2)ncc1F (mixture of isomers) [Example 42, (7S,8aS)-7-(3-([1,2,4]triazolo[1,5-a]pyridin-5-yl)propyl)-2-(5-fluoro-4-methylpyridin-2-yl)hexahydropyrrolo[1,2-a]pyrazin-6(2H)-one]
pIC50 (human M1 receptor): < 5.00 | pIC50 (M3): < 5.00 | pIC50 (M2): 5.00 to 6.00

N#Cc1cc(N2CCN3C(=O)[C@@H](CCCc4cccc5ncnn45)C[C@H]3C2)ccc1F [Example 52, 5-((7S,8aS)-7-(3-([1,2,4]triazolo[1,5-a]pyridin-5-yl)propyl)-6-oxohexahydropyrrolo [1,2-a]pyrazin-2(1H)-yl)-2-fluorobenzonitrile]
pIC50 (human M1 receptor): 6.00 to 7.00 | pIC50 (M3): 5.00 to 6.00 | pIC50 (M2): 6.00 to 7.00

Cc1ccc(N2CCN3C(=O)[C@@H](CCCc4cccc5ncnn45)C[C@H]3C2)nc1 [Example 40, (7S,8aS)-7-(3-([1,2,4]triazolo[1,5-a]pyridin-5-yl)propyl)-2-(5-methylpyridin-2-yl)hexahydropyrrolo[1,2-a]pyrazin-6(2H)-one]
pIC50 (human M1 receptor): > 7.00 | pIC50 (M3): < 5.00 | pIC50 (M2): < 5.00

N#Cc1ccc(N2CCN3C(=O)[C@@H](CCCc4cccc5c4NCCN5)C[C@H]3C2)nc1 [Example 61, 6-((7S,8aS)-6-oxo-7-(3-(1,2,3,4-tetrahydroquinoxalin-5-yl)propyl)hexahydropyrrolo[1,2-a]pyrazin-2(1H)-yl)nicotinonitrile]
pIC50 (human M1 receptor): 6.00 to 7.00 | pIC50 (M3): < 5.00 | pIC50 (M2): 5.00 to 6.00

O=C1[C@@H](CCCc2cccn3ncnc23)C[C@H]2CN(c3ccc(F)cc3F)CCN12 [Example 71, (7S,8aS)-7-(3-([1,2,4]triazolo[1,5-a]pyridin-8-yl)propyl)-2-(2,4-difluorophenyl)hexahydropyrrolo[1,2-a]pyrazin-6(2H)-one]
pIC50 (human M1 receptor): 5.00 to 6.00 | pIC50 (M3): < 5.00 | pIC50 (M2): 5.00 to 6.00

O=C1C(CCCc2cccc3ncsc23)C[C@H]2CN(c3ccncc3F)CCN12 (mixture of isomers) [Example 9, (8aS)-7-(3-(benzo[d]thiazol-7-yl)propyl)-2-(3-fluoropyridin-4-yl)hexahydropyrrolo[1,2-a]pyrazin-6(2H)-one]
pIC50 (human M1 receptor): 6.00 to 7.00 | pIC50 (M3): < 5.00 | pIC50 (M2): 5.00 to 6.00

N#Cc1ccc(N2CCN3C(=O)[C@@H](CCCc4cccc5c4CCO5)C[C@H]3C2)nc1 [Example 19, 6-((7S,8aS)-7-(3-(2,3-dihydrobenzofuran-4-yl)propyl)-6-oxohexahydropyrrolo[1,2-a]pyrazin-2(1H)-yl)nicotinonitrile]
pIC50 (human M1 receptor): > 7.00 | pIC50 (M3): 5.00 to 6.00 | pIC50 (M2): 6.00 to 7.00

N#Cc1ccc(N2CCN3C(=O)[C@@H](CCCc4cccc(F)c4C4CC4)C[C@H]3C2)nc1 [Example 25, 6-((7S,8aS)-7-(3-(2-cyclopropyl-3-fluorophenyl)propyl)-6-oxohexahydropyrrolo[1,2-a]pyrazin-2(1H)-yl)nicotinonitrile]
pIC50 (human M1 receptor): > 7.00 | pIC50 (M3): 6.00 to 7.00 | pIC50 (M2): 5.00 to 6.00

O=C1[C@@H](CCCc2cccc3nccn23)C[C@H]2CN(c3ccncc3F)CCN12 [Example 3, (7S,8aS)-2-(3-fluoropyridin-4-yl)-7-(3-(imidazo[1,2-a]pyridin-5-yl)propyl)hexahydropyrrolo[1,2-a]pyrazin-6(2H)-one]
pIC50 (human M1 receptor): 6.00 to 7.00 | pIC50 (M3): 5.00 to 6.00 | pIC50 (M2): < 5.00

N#Cc1ccc(N2CCN3C(=O)[C@@H](CCCc4cccc5nnnn45)C[C@H]3C2)nc1 [Example 17, 6-((7S,8aS)-6-oxo-7-(3-(tetrazolo[1,5-a]pyridin-5-yl)propyl)hexahydropyrrolo[1,2-a]pyrazin-2(1H)-yl)nicotinonitrile]
pIC50 (human M1 receptor): > 7.00 | pIC50 (M3): 5.00 to 6.00 | pIC50 (M2): 5.00 to 6.00

O=C1[C@@H](CCCc2cccc3ncsc23)C[C@H]2CN(c3cccnc3)CCN12 [Example 26, (7S,8aS)-7-(3-(benzo[d]thiazol-7-yl)propyl)-2-(pyridin-3-yl)hexahydropyrrolo[1,2-a]pyrazin-6(2H)-one]
pIC50 (human M1 receptor): 6.00 to 7.00 | pIC50 (M3): 5.00 to 6.00 | pIC50 (M2): < 5.00

N#Cc1ccc(N2CCN3C(=O)[C@@H](CCCc4cccc5ncsc45)C[C@H]3C2)nc1 [Example 10, 6-((7S,8aS)-7-(3-(benzo[d]thiazol-7-yl)propyl)-6-oxohexahydropyrrolo[1,2-a]pyrazin-2(1H)-yl)nicotinonitrile]
pIC50 (human M1 receptor): > 7.00 | pIC50 (M3): 5.00 to 6.00 | pIC50 (M2): 6.00 to 7.00

N#Cc1ccc(N2CCN3C(=O)[C@@H](CCCc4cccn5nccc45)C[C@H]3C2)nc1 [Example 58, 6-((7S,8aS)-6-oxo-7-(3-(pyrazolo[1,5-a]pyridin-4-yl)propyl)hexahydropyrrolo[1,2-a]pyrazin-2(1H)-yl)nicotinonitrile]
pIC50 (human M1 receptor): > 7.00 | pIC50 (M3): 6.00 to 7.00 | pIC50 (M2): 6.00 to 7.00

O=C1[C@H](CCCc2cccc3ncsc23)C[C@H]2CN(c3ccncc3F)CCN12 [Example 1, (7R,8aS)-7-(3-(benzo[d]thiazol-7-yl)propyl)-2-(3-fluoropyridin-4-yl)hexahydropyrrolo[1,2-a]pyrazin-6(2H)-one]
pIC50 (human M1 receptor): < 5.00 | pIC50 (M3): < 5.00 | pIC50 (M2): < 5.00

O=C1C(CCCc2cccc3ncnn23)C[C@H]2CN(c3cncc(Cl)c3)CCN12 (mixture of isomers) [Example 44, (8aS)-7-(3-([1,2,4]triazolo[1,5-a]pyridin-5-yl)propyl)-2-(5-chloropyridin-3-yl)hexahydropyrrolo[1,2-a]pyrazin-6(2H)-one]
pIC50 (human M1 receptor): 5.00 to 6.00 | pIC50 (M3): < 5.00 | pIC50 (M2): 5.00 to 6.00

O=C1[C@H](CCCc2cccc3ncsc23)C[C@@H]2CN(c3ccncc3F)CCN12 [Example 8, (7R,8aR)-7-(3-(benzo[d]thiazol-7-yl)propyl)-2-(3-fluoropyridin-4-yl)hexahydropyrrolo[1,2-a]pyrazin-6(2H)-one]
pIC50 (human M1 receptor): < 5.00 | pIC50 (M3): < 5.00 | pIC50 (M2): < 5.00

O=C1[C@@H](CCCc2cccc3ncnn23)C[C@H]2CN(c3ncc(F)cn3)CCN12 [Example 35, (7S,8aS)-7-(3-([1,2,4]triazolo[1,5-a]pyridin-5-yl)propyl)-2-(5-fluoropyrimidin-2-yl)hexahydropyrrolo[1,2-a]pyrazin-6(2H)-one]
pIC50 (human M1 receptor): > 7.00 | pIC50 (M3): < 5.00 | pIC50 (M2): < 5.00
